In PubChem BioAssay AID1195 (EPA DSSTox, 2008):

Tested on: human maximum recommended daily dose, FDA database
Assay: DSSTox (FDAMDD) FDA Maximum (Recommended) Daily Dose Database
Details: stronger effect = lower value
How it was run: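 MRDD values come from clinical trials with daily oral dosing, usually for 3–12 months, for the average adult, in mg/day converted to mg/kg-bw/day assuming 60 kg. Antineoplastic mg/m2 doses are divided by 37. Activity score maps log10(1/MRDD mmol) onto 1–100.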

[1] = TherapeuticCategory: antidepressant
[2] = TherapeuticCategory: diagnostic aid
[3] = TherapeuticCategory: anthelmintic
[4] = TherapeuticCategory: antineoplastic
[5] = TherapeuticCategory: topical antifungal
[6] = TherapeuticCategory: antibacterial
[7] = TherapeuticCategory: analgesic, anti inflammatory
[8] = TherapeuticCategory: anticholinergic
[9] = TherapeuticCategory: skeletal muscle relaxant
[10] = TherapeuticCategory: sedative, hypnotic
[11] = TherapeuticCategory: antihypertensive

## C[C@@]12CCCCC[C@@H](Cc3ccc(O)cc31)[C@@H]2N
TherapeuticCategory: narcotic analgesic
  maximum recommended daily dose (mmol/kg-bw/day): 0.000681

## CN1CCN2c3ncccc3Cc3ccccc3C2C1 (configuration not stated)
[1]
  maximum recommended daily dose (mmol/kg-bw/day): 0.00283

## C[C@H](CCC(=O)O)[C@H]1CC[C@H]2[C@@H]3C(=O)C[C@@H]4CC(=O)CC[C@]4(C)[C@H]3CC(=O)[C@]12C
TherapeuticCategory: choleretic
  maximum recommended daily dose (mmol/kg-bw/day): 0.0932

## Cc1cccc(C)c1NC(=O)c1cc(S(N)(=O)=O)c(Cl)cc1O
TherapeuticCategory: diuretic, antihypertensive
  maximum recommended daily dose (mmol/kg-bw/day): 0.00188

## CC(=O)Nc1c(I)c(C(=O)O)c(I)c(N(C)C(C)=O)c1I
[2]
  maximum recommended daily dose (mmol/kg-bw/day): 0.159

## CCCSc1ccc2nc(NC(=O)OC)[nH]c2c1
[3]
  maximum recommended daily dose (mmol/kg-bw/day): 0.0501

## CCC(C)CON=O (configuration not stated)
TherapeuticCategory: none
  maximum recommended daily dose (mmol/kg-bw/day): 0.0427

## COc1cccc2c1C(=O)c1c(O)c3c(c(O)c1C2=O)C[C@@](O)(C(=O)CO)C[C@@H]3O[C@H]1C[C@H](N)[C@H](O)[C@H](C)O1
[4]
  maximum recommended daily dose (mmol/kg-bw/day): 0.00447

## CCC1(C)CC(=O)NC1=O (configuration not stated)
TherapeuticCategory: anticonvulsant
  maximum recommended daily dose (mmol/kg-bw/day): 0.118

## CN(C/C=C/C#CC(C)(C)C)Cc1cccc2ccccc12
[5]
  maximum recommended daily dose (mmol/kg-bw/day): 0.0926

## C[C@@H](N)[C@@H](O)c1ccccc1
TherapeuticCategory: decongestant, anorexic
  maximum recommended daily dose (mmol/kg-bw/day): 0.0198

## CC(=O)NS(=O)(=O)c1cc(N)ccc1S(=O)(=O)c1ccc(N)cc1
[6]
  maximum recommended daily dose (mmol/kg-bw/day): 0.17

## C=CCN1CC[C@]23c4c5ccc(O)c4O[C@H]2C(=O)CC[C@@]3(O)[C@H]1C5
TherapeuticCategory: narcotic antagonist
  maximum recommended daily dose (mmol/kg-bw/day): 0.000305

## Nc1ncn([C@@H]2O[C@H](CO)[C@@H](O)[C@H]2O)c(=O)n1
[4]
  maximum recommended daily dose (mmol/kg-bw/day): 0.0831

## CC(=O)O[C@]1(C(C)=O)CC[C@H]2[C@@H]3C=C(Cl)C4=CC(=O)CC[C@]4(C)[C@H]3CC[C@@]21C
TherapeuticCategory: progestogen, antineoplastic
  maximum recommended daily dose (mmol/kg-bw/day): 8.22e-05

## C[C@H]1O[C@@H](O[C@H]2CC[C@@]3(C)[C@H](CC[C@@H]4[C@@H]3C[C@@H](O)[C@]3(C)[C@@H](C5=CC(=O)OC5)CC[C@]43O)C2)C[C@H](O)[C@@H]1O[C@H]1C[C@H](O)[C@H](O[C@H]2C[C@H](O)[C@H](O[C@@H]3O[C@H](CO)[C@@H](O)[C@H](O)[C@H]3O)[C@@H](C)O2)[C@@H](C)O1
TherapeuticCategory: cardiotonic
  maximum recommended daily dose (mmol/kg-bw/day): 8.48e-08

## Cn1c(=O)c2c(ncn2CCCNCC(O)c2cc(O)cc(O)c2)n(C)c1=O (configuration not stated)
TherapeuticCategory: bronchodilator
  maximum recommended daily dose (mmol/kg-bw/day): 0.00257

## O=C(O)c1ccccc1Nc1cccc(C(F)(F)F)c1
[7]
  maximum recommended daily dose (mmol/kg-bw/day): 0.0356

## N[C@@H](Cc1ccc(O)cc1)C(=O)O
TherapeuticCategory: none
  maximum recommended daily dose (mmol/kg-bw/day): 0.552

## COC1CC(=C(c2cccs2)c2cccs2)C[N+](C)(C)C1 (configuration not stated)
[8]
  maximum recommended daily dose (mmol/kg-bw/day): 0.00375

## CC(C)=CCC1C(=O)N(c2ccccc2)N(c2ccccc2)C1=O
TherapeuticCategory: anti inflammatory
  maximum recommended daily dose (mmol/kg-bw/day): 0.039

## CCC(Cc1c(I)cc(I)c(N)c1I)C(=O)O (configuration not stated)
[2]
  maximum recommended daily dose (mmol/kg-bw/day): 0.175

## C[N+]1(C)CCC(OC(=O)CC(O)(c2ccccc2)C2CCCC2)C1 (configuration not stated)
[8]
  maximum recommended daily dose (mmol/kg-bw/day): 0.000162

## CC(=O)O[C@H]1C[C@@H]2CC[C@@H]3[C@H](CC[C@@]4(C)[C@H]3C[C@H]([N+]3(C)CCCCC3)[C@@H]4OC(C)=O)[C@@]2(C)C[C@@H]1[N+]1(C)CCCCC1
[9]
  maximum recommended daily dose (mmol/kg-bw/day): 0.000136

## O=C1OC(c2ccc(O)cc2)(c2ccc(O)cc2)c2ccccc21
TherapeuticCategory: cathartic
  maximum recommended daily dose (mmol/kg-bw/day): 0.00682

## OC[C@H]1OC(O)[C@H](O)[C@@H](O)[C@@H]1O (some centres not stated)
TherapeuticCategory: fluid and nutrient replenisher
  maximum recommended daily dose (mmol/kg-bw/day): 0.555

## C[C@]12CC[C@@H]3c4ccc(O)cc4CC[C@H]3[C@@H]1CC[C@@H]2OC(=O)CCC1CCCC1
TherapeuticCategory: estrogen
  maximum recommended daily dose (mmol/kg-bw/day): 0.00126

## N[C@@H](CCC(=O)O)C(=O)O
TherapeuticCategory: experimental antiepileptic
  maximum recommended daily dose (mmol/kg-bw/day): 0.68

## CC(C)(C)NCC(O)c1cc(O)cc(O)c1 (configuration not stated)
TherapeuticCategory: bronchodilator, tocolytic
  maximum recommended daily dose (mmol/kg-bw/day): 0.00111

## CN(C)CCC(c1ccc(Br)cc1)c1ccccn1 (configuration not stated)
TherapeuticCategory: antihistaminic
  maximum recommended daily dose (mmol/kg-bw/day): 0.00125

## O=C(O)CCCc1ccc(N(CCCl)CCCl)cc1
[4]
  maximum recommended daily dose (mmol/kg-bw/day): 0.000657

## CO[C@@]1(NC(=O)C2SC(=C(C(N)=O)C(=O)O)S2)C(=O)N2C(C(=O)O)=C(CSc3nnnn3C)CS[C@@H]21 (some centres not stated)
[6]
  maximum recommended daily dose (mmol/kg-bw/day): 0.116

## CC1OC(C)OC(C)O1 (configuration not stated)
[10]
  maximum recommended daily dose (mmol/kg-bw/day): 1.89

## Clc1ccc(COC(Cn2ccnc2)c2ccc(Cl)cc2Cl)c(Cl)c1 (configuration not stated)
[5]
  maximum recommended daily dose (mmol/kg-bw/day): 0.144

## CCC(C)n1ncn(-c2ccc(N3CCN(c4ccc(OC[C@H]5CO[C@](Cn6cncn6)(c6ccc(Cl)cc6Cl)O5)cc4)CC3)cc2)c1=O (some centres not stated)
TherapeuticCategory: antifungal
  maximum recommended daily dose (mmol/kg-bw/day): 0.0142

## CCCc1nc2c(C)cc(-c3nc4ccccc4n3C)cc2n1Cc1ccc(-c2ccccc2C(=O)O)cc1
[11]
  maximum recommended daily dose (mmol/kg-bw/day): 0.00258

## CC1(C)[C@@H](OC(=O)CCC(=O)O)CC[C@]2(C)[C@H]3C(=O)C=C4[C@@H]5C[C@@](C)(C(=O)O)CC[C@]5(C)CC[C@@]4(C)[C@]3(C)CC[C@@H]12
TherapeuticCategory: antiulcerative
  maximum recommended daily dose (mmol/kg-bw/day): 0.00876

## CC(=O)O[C@H]1C[C@@H]2CC[C@@H]3[C@H](CC[C@@]4(C)[C@H]3C[C@H](N3CC[N+](C)(C)CC3)[C@@H]4OC(C)=O)[C@@]2(C)C[C@@H]1N1CC[N+](C)(C)CC1
[9]
  maximum recommended daily dose (mmol/kg-bw/day): 0.000118

## COc1cccc2c1C(=O)c1c(O)c3c(c(O)c1C2=O)C[C@@](O)(C(C)=O)C[C@@H]3O[C@H]1C[C@H](N)[C@H](O)[C@H](C)O1
[4]
  maximum recommended daily dose (mmol/kg-bw/day): 0.00205

## CCN(CC)CCC1(c2ccccc2)CCC(=O)NC1=O (configuration not stated)
TherapeuticCategory: anticholinergic, antiparkinsonian
  maximum recommended daily dose (mmol/kg-bw/day): 0.00289

## CNS(=O)(=O)Cc1ccc2[nH]cc(CCN(C)C)c2c1
TherapeuticCategory: antimigraine
  maximum recommended daily dose (mmol/kg-bw/day): 0.000677

## COc1cc(Cc2cnc(N)nc2N)cc(OC)c1OC
[6]
  maximum recommended daily dose (mmol/kg-bw/day): 0.0184

## CCCCCCCC/C=C\CCCCCCCC(=O)O
TherapeuticCategory: sclerosing agent
  maximum recommended daily dose (mmol/kg-bw/day): 0.242

## Cc1cc(/C=C/c2ccc3cc(N(C)C)ccc3[n+]2C)c(C)n1-c1ccccc1
[3]
  maximum recommended daily dose (mmol/kg-bw/day): 0.00434

## CCCCC[C@H](O)/C=C/[C@@H]1[C@H]2C/C(=C/CCCC(=O)O)O[C@H]2C[C@H]1O
TherapeuticCategory: platelet aggregation inhibitor
  maximum recommended daily dose (mmol/kg-bw/day): 2.84e-08

## CC(C)c1cccc(C(C)C)c1O
TherapeuticCategory: anesthetic
  maximum recommended daily dose (mmol/kg-bw/day): 0.014

## CCN(CC)C(=O)[C@@H]1C=C2c3cccc4[nH]cc(c34)C[C@H]2N(C)C1
TherapeuticCategory: antipsychotic, seratonin receptor antagonist
  maximum recommended daily dose (mmol/kg-bw/day): 3.86e-05

## CCCN1C[C@H](CSC)C[C@@H]2c3cccc4[nH]cc(c34)C[C@H]21
TherapeuticCategory: antiparkinsonian, dopamine receptor agonist
  maximum recommended daily dose (mmol/kg-bw/day): 0.000159

## C[C@H]1[C@H](NC(=O)/C(=N\OC(C)(C)C(=O)O)c2csc(N)n2)C(=O)N1S(=O)(=O)O
[6]
  maximum recommended daily dose (mmol/kg-bw/day): 0.305

## CN(C)CCn1nnnc1SCC1=C(C(=O)O)N2C(=O)[C@@H](NC(=O)Cc3csc(N)n3)[C@H]2SC1
[6]
  maximum recommended daily dose (mmol/kg-bw/day): 0.19

## CC1=C(/C=C/C(C)=C/C=C/C(C)=C\C(=O)O)C(C)(C)CCC1
TherapeuticCategory: keratolytic
  maximum recommended daily dose (mmol/kg-bw/day): 0.00666

## CC(C(=O)O)c1cccc(Oc2ccccc2)c1 (configuration not stated)
[7]
  maximum recommended daily dose (mmol/kg-bw/day): 0.206

## CC(=O)Nc1c(I)c(C(=O)N[C@H]2C(O)O[C@H](CO)[C@@H](O)[C@@H]2O)c(I)c(N(C)C(C)=O)c1I (some centres not stated)
[2]
  maximum recommended daily dose (mmol/kg-bw/day): 0.132

## CN[C@H]1CC[C@@H](c2ccc(Cl)c(Cl)c2)c2ccccc21
[1]
  maximum recommended daily dose (mmol/kg-bw/day): 0.0109

## Cc1cc2c(OCC(CNC(C)(C)C)OC(=O)c3ccccc3)cccc2[nH]1 (configuration not stated)
[11]
  maximum recommended daily dose (mmol/kg-bw/day): 4.39e-05

## OC1C(O)C(O)C(O)C(O)C1O (configuration not stated)
TherapeuticCategory: vitamin B complex, lipotropic
  maximum recommended daily dose (mmol/kg-bw/day): 0.555

## CCCCC(=O)N(Cc1ccc(-c2ccccc2-c2nn[nH]n2)cc1)[C@@H](C(=O)O)C(C)C
[11]
  maximum recommended daily dose (mmol/kg-bw/day): 0.0122

## CN(C)C(=O)CCCOC(=O)C(C)(C)Oc1ccc(Cl)cc1
TherapeuticCategory: antihyperlipoproteinemic
  maximum recommended daily dose (mmol/kg-bw/day): 0.137

## CC(I)C1OCC(CO)O1 (configuration not stated)
TherapeuticCategory: expectorant
  maximum recommended daily dose (mmol/kg-bw/day): 0.0155

## O=C1CCC(N2C(=O)c3ccccc3C2=O)C(=O)N1 (configuration not stated)
[10]
  maximum recommended daily dose (mmol/kg-bw/day): 0.0258

## CC1=C(C(=O)O)N2C(=O)[C@@H](NC(=O)[C@H](N)c3ccc(O)cc3)[C@H]2SC1
[6]
  maximum recommended daily dose (mmol/kg-bw/day): 0.046

## CC(=O)CC(c1ccc([N+](=O)[O-])cc1)c1c(O)c2ccccc2oc1=O (configuration not stated)
TherapeuticCategory: anticoagulant
  maximum recommended daily dose (mmol/kg-bw/day): 0.000566

## C#C[C@]1(O)CC[C@H]2[C@@H]3CCC4=CC(=O)CC[C@@H]4[C@H]3CC[C@@]21C
TherapeuticCategory: progestogen
  maximum recommended daily dose (mmol/kg-bw/day): 5.6e-05

## C[N+]1([O-])[C@@H]2CC[C@H]1CC(OC(=O)C(CO)c1ccccc1)C2 (some centres not stated)
[8]
  maximum recommended daily dose (mmol/kg-bw/day): 0.000164

## CC(=O)OCC(=O)[C@@]1(O)[C@H](C)C[C@H]2[C@@H]3C[C@H](F)C4=CC(=O)C=C[C@]4(C)[C@H]3[C@@H](O)C[C@@]21C
TherapeuticCategory: glucocorticoid
  maximum recommended daily dose (mmol/kg-bw/day): 0.000921

## N[C@@H](Cc1cnc[nH]1)C(=O)O
TherapeuticCategory: none
  maximum recommended daily dose (mmol/kg-bw/day): 0.645

## CC(=O)O[C@H]1C[C@@]2(C)[C@@H](C[C@@H](O)[C@H]3[C@@]4(C)CC[C@@H](O)[C@@H](C)[C@@H]4CC[C@@]32C)/C1=C(\CCC=C(C)C)C(=O)O
[6]
  maximum recommended daily dose (mmol/kg-bw/day): 0.0484

## O=C(O)c1ccccc1C(=O)Nc1ccc(S(=O)(=O)Nc2nccs2)cc1
[6]
  maximum recommended daily dose (mmol/kg-bw/day): 0.496

## C#CC(O)(/C=C\Cl)CC (configuration not stated)
[10]
  maximum recommended daily dose (mmol/kg-bw/day): 0.115

## NCCS
TherapeuticCategory: antidote to acetaminophen
  maximum recommended daily dose (mmol/kg-bw/day): 0.432

## CNC(C)CCC=C(C)C (configuration not stated)
TherapeuticCategory: adrenergic, bronchodilator, mydriatic, antiglaucoma
  maximum recommended daily dose (mmol/kg-bw/day): 0.0384

## CC(C)(C)NCC(O)COc1cccc2c1CCC(=O)N2 (configuration not stated)
TherapeuticCategory: antihypertensive, antianginal, antiarrhythmic, antiglaucomic
  maximum recommended daily dose (mmol/kg-bw/day): 0.000571
